These are literature values, as cited in patent US11154520B2, “Combination therapy for metastatic cancer” (General Oncology, Inc., priority 2015, dated 2021).

The structures appear in SMILES notation.

The conditions of this data set: decomposes intravascularly within seconds to 2,3-diketogulonic acid.

`O=C1O[C@H]([C@@H](O)CO)C(=O)C1=O` [DHA, (5R)-5-[(1S)-1,2-dihydroxyethyl]oxolane-2,3,4-trione]: the stability in blood result was “unstable”.
